Literature values, collected in US20050208598A1 (priority 2004, published 2005).

Biological target: avidin (Gallus gallus, UniProt P02701)
Settings: read-out: Kd of binding to avidin

Chain of avidin (P02701 25-152, species assumed): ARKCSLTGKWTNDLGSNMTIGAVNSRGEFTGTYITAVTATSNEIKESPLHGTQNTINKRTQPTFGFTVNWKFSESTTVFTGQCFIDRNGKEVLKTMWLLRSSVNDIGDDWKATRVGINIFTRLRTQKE

Row | Kd | Structure (SMILES)
1 | ~6 µM | O=C(O)c1ccccc1N=Nc1ccc(O)cc1 [HABA, 2-(4-hydroxyphenylazo)benzoic acid]
2 | ~0.1 µM | C[C@@H]1NC(=O)N[C@@H]1CCCCCC(=O)O [desthiobiotin]
